Reference: ChEMBL document CHEMBL5465560, “Selectivity Literature for EUbOPEN Chemogenomic Library” (2024)

Tests used:
[1] = biological target: T1, Dual specificity mitogen-activated protein kinase kinase 4 (Homo sapiens) (UniProt P45985); test: Selectivity interaction (KinomeScan (DiscoverX)) EUB0001079a MAP2K4; details: at 1 µM
T1 sequence (whole entry): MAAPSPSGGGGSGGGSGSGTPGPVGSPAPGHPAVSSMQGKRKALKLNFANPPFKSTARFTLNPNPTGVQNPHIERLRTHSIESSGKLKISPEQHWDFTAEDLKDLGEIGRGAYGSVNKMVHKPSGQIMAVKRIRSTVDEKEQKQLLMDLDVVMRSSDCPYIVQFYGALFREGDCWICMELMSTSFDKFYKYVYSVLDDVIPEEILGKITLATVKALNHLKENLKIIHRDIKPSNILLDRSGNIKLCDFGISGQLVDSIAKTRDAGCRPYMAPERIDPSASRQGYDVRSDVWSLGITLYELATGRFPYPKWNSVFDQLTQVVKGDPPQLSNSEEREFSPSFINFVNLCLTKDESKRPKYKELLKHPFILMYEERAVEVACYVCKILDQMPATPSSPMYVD

[2] = biological target: T2, Calcium/calmodulin-dependent protein kinase type IV (Homo sapiens) (UniProt Q16566); test: Selectivity interaction (KinomeScan (DiscoverX)) EUB0000607a CAMK4; details: at 10 µM
T2 sequence (whole entry): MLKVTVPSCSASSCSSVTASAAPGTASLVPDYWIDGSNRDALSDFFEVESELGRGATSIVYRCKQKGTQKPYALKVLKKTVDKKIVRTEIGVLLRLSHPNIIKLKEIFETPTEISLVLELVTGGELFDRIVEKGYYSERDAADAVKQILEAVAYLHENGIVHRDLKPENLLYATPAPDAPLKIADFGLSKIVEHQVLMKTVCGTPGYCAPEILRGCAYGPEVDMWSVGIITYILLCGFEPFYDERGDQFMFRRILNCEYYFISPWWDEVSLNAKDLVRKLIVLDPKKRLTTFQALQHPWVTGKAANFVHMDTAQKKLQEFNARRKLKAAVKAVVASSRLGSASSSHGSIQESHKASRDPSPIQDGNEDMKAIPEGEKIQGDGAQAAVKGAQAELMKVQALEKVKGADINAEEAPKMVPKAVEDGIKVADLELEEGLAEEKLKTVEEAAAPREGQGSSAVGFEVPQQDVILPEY

[3] = biological target: T3, Serine/threonine-protein kinase RIO1 (Homo sapiens) (UniProt Q9BRS2); test: Selectivity interaction (KinomeScan (DiscoverX)) EUB0001619a RIOK1; details: at 1 µM
T3 sequence (whole entry): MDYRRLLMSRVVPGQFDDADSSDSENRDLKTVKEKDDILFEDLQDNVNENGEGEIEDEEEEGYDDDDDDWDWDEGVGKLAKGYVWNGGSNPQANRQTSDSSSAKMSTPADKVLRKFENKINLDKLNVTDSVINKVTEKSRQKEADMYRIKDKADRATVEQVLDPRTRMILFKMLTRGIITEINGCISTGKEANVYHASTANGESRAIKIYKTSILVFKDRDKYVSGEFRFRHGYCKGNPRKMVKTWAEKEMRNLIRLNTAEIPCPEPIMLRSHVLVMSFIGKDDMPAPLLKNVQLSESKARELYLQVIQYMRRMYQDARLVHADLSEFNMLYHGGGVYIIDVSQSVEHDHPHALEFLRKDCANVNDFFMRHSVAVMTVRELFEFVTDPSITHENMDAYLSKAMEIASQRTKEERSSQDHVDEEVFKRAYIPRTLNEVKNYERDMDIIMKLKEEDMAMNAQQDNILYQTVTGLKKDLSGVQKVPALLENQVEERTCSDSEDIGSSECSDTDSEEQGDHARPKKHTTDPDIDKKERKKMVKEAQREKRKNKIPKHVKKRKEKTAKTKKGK

[4] = biological target: T4, Mitogen-activated protein kinase 12 (Homo sapiens) (UniProt P53778); test: Selectivity interaction (KinomeScan (DiscoverX)) EUB0000045b MAPK12
T4 sequence (whole entry): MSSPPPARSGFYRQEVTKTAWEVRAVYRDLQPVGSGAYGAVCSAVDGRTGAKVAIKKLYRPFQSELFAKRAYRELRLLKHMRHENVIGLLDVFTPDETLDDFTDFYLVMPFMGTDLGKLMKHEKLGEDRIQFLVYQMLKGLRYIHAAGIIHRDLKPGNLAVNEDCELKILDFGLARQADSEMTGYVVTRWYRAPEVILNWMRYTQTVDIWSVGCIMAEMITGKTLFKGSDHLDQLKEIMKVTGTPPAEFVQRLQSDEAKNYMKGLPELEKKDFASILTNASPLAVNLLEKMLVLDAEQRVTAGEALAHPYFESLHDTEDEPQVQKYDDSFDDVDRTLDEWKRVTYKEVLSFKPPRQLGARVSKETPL

[5] = biological target: T5, Rhodopsin kinase GRK7 (Homo sapiens) (UniProt Q8WTQ7); test: Selectivity interaction (KinomeScan (DiscoverX)) EUB0000595a GRK7; details: at 10 µM
T5 sequence (whole entry): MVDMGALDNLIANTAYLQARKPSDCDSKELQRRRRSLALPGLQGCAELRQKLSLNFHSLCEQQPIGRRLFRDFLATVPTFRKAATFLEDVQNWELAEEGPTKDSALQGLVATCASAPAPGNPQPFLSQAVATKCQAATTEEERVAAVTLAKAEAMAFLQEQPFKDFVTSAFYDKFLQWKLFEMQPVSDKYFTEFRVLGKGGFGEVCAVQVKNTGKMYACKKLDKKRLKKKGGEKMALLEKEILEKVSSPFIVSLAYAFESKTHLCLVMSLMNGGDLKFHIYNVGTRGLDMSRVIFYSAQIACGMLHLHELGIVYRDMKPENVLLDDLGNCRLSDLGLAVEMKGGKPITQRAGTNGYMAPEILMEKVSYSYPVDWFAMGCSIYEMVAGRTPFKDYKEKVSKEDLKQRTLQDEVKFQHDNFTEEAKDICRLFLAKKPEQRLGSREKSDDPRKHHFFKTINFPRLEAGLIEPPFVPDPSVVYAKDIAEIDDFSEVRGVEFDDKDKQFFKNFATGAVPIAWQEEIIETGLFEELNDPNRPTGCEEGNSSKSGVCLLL

[6] = biological target: Cyclin-dependent kinase-like 3 (Homo sapiens) (UniProt Q8IVW4); test: Selectivity interaction (KinomeScan (DiscoverX)) EUB0000229b CDKL3; details: at 10 µM
Sequence of Cyclin-dependent kinase-like 3 (Homo sapiens) (Q8IVW4 whole entry, looked up): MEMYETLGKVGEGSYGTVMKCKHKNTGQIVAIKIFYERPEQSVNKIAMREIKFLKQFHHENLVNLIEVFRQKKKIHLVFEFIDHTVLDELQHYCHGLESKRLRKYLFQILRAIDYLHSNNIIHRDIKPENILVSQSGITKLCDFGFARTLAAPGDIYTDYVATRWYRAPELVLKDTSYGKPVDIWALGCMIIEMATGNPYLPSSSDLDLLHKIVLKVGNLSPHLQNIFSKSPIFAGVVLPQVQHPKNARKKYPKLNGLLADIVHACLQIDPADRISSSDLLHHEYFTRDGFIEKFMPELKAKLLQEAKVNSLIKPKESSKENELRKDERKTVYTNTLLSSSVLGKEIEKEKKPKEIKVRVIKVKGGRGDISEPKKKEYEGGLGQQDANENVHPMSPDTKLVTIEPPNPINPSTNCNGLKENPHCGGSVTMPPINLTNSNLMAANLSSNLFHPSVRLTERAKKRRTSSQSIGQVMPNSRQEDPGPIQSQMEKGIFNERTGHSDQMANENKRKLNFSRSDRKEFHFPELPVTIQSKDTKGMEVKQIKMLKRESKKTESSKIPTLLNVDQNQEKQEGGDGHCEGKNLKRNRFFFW

[7] = biological target: Mitotic checkpoint serine/threonine-protein kinase BUB1 (Homo sapiens, UniProt O43683); test: Selectivity interaction (KinomeScan (DiscoverX)) EUB0000666a BUB1; details: at 10 µM
Sequence of Mitotic checkpoint serine/threonine-protein kinase BUB1 (O43683 whole entry, looked up): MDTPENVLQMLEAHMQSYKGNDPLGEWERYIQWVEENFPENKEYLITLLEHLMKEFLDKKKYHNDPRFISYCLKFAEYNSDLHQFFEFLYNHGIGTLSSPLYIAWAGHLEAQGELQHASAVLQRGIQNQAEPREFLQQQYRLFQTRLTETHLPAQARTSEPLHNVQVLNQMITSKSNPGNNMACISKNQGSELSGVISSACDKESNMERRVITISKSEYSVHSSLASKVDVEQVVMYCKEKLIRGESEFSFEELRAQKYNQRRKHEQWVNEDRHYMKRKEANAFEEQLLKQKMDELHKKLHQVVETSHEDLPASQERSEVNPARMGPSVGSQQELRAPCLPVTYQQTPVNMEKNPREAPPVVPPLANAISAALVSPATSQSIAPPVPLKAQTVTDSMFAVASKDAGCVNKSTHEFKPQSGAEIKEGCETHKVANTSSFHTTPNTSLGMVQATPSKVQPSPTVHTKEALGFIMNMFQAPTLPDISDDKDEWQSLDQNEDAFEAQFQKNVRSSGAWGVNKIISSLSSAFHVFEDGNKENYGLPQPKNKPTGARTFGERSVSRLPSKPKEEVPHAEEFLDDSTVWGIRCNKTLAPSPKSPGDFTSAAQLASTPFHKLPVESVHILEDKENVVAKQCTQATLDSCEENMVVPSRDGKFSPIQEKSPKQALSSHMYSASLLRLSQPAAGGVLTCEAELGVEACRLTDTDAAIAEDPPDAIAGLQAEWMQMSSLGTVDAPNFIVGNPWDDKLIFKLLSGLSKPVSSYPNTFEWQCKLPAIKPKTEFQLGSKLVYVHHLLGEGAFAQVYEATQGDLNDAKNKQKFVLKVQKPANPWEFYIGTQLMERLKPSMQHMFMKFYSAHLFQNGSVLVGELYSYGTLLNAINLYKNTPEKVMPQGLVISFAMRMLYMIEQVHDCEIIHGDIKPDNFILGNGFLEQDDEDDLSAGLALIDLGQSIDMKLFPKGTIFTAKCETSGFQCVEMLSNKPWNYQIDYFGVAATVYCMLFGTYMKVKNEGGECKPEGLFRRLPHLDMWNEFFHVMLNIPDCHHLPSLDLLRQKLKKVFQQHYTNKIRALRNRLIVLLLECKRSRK

[8] = biological target: Wee1-like protein kinase 2 (Homo sapiens) (UniProt P0C1S8); test: Selectivity interaction (KinomeScan (DiscoverX)) EUB0000092b WEE2; details: at 10 µM
Sequence of Wee1-like protein kinase 2 (Homo sapiens) (P0C1S8 whole entry, looked up): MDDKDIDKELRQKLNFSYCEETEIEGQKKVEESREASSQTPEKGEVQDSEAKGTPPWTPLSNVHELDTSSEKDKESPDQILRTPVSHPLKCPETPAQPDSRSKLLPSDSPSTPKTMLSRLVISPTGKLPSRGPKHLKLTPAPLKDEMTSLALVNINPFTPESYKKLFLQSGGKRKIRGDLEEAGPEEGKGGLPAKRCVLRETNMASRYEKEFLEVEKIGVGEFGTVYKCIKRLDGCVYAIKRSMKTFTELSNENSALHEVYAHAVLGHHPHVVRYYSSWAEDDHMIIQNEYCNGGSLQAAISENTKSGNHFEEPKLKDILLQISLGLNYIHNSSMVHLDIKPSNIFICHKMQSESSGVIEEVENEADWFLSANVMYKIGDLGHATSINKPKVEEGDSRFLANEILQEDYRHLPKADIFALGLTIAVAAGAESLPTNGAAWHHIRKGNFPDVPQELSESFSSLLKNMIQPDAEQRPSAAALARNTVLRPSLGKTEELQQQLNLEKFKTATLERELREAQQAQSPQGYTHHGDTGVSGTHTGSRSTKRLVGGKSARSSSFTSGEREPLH

For `Nc1cnc(N2CCc3cc(S(=O)(=O)Nc4c(F)cc(Cl)cc4F)cc(N4CCCC4=O)c32)nc1` [TP-020n], the % of control [1] was 100%.
For `CNC(=O)Nc1ccc(-c2nc(N3CC4CCC(C3)O4)c3cnn(C4CCC5(CC4)OCCO5)c3n2)cc1`, the % of control [2] was 100%.
`N#Cc1cccc(-c2c[nH]c3ncnc(N4CCOCC4)c23)c1` was tested, and the % of control [3] was 38%.
`C=CC(=O)Nc1cc(-n2c(=O)ccc3cnc4ccc(-c5ccc(NS(C)(=O)=O)cc5)cc4c32)ccc1C` was tested, and the % of control ([4]; at 1 µM) was 72% and the % of control ([4]; at 10 µM) was 79%.
For `COCC(=O)NC/C=C/c1ccc2ncnc(Nc3ccc(Oc4ccc(C)nc4)c(C)c3)c2c1` [CP-724714], the % of control [5] was 100%.
Compound `COc1cc(N(C)c2ccnc3ccc(C(F)(F)F)cc23)cc(OC)c1OC` has a % binding [6] of 88%.
Compound `O=C(NOC[C@H](O)CO)c1ccc(F)c(F)c1Nc1ccc(I)cc1F` has a % of control [7] of 100%.
`CCC(=O)N1CCN(c2ccc(-n3c(=O)ccc4cnc5ccc(-c6cnc7ccccc7c6)cc5c43)cc2C(F)(F)F)CC1` gave a % of control [8] of 100%.
